Structures can show the parent of a compound that is named as a salt. Where two headings read alike, the source gives them in different places.
Key:
[1] = biological target: VEGFR2 (KDR) (Homo sapiens, UniProt P35968); experiment: biochemical
[2] = biological target: Topoisomerase II (Homo sapiens, UniProt P11388); experiment: Topoisomerase II screening kit
[3] = tested on: HepG2 cells; experiment: Cytotoxicity using MTT assay, HepG2; assay type: cell-based; details: read-out: IC50 cytotoxicity against HepG2
Method: (§1) Breast cancer (MCF-7) and liver cancer (HepG2) cell lines were collected from National Cancer Institute in Cairo and grown in “RPMI-1640 medium L-Glutamine. The cells were grown in 10% fetal bovine serum (FBS) and 1% penicillin-streptomycin using standard tissue culture protocol. On the second day, cells were grown in triplicate on a 96-well plate at a density of 5 × 10^4 cells and incubated with the investigated compounds at “0.01, 0.1, 1, 10, and 100 µM”. Cell viabilioty was measured with MTT solution. The absorbance was measured using an ELISA microplate reader. After comparing the treated groups to the control, the IC50 values were recorded to indicate the level of viability following previous work.

[4] = tested on: MCF-7 cells; experiment: Cytotoxicity using MTT assay, MCF-7; assay type: cell-based; details: for IC50: Homo sapiens, MCF7, 48 h, 48 h, read-out: IC50 cytotoxicity against MCF-7; for cell death: MCF-7 cells
Method: as §1

Sequence of Topoisomerase II (P11388 whole entry): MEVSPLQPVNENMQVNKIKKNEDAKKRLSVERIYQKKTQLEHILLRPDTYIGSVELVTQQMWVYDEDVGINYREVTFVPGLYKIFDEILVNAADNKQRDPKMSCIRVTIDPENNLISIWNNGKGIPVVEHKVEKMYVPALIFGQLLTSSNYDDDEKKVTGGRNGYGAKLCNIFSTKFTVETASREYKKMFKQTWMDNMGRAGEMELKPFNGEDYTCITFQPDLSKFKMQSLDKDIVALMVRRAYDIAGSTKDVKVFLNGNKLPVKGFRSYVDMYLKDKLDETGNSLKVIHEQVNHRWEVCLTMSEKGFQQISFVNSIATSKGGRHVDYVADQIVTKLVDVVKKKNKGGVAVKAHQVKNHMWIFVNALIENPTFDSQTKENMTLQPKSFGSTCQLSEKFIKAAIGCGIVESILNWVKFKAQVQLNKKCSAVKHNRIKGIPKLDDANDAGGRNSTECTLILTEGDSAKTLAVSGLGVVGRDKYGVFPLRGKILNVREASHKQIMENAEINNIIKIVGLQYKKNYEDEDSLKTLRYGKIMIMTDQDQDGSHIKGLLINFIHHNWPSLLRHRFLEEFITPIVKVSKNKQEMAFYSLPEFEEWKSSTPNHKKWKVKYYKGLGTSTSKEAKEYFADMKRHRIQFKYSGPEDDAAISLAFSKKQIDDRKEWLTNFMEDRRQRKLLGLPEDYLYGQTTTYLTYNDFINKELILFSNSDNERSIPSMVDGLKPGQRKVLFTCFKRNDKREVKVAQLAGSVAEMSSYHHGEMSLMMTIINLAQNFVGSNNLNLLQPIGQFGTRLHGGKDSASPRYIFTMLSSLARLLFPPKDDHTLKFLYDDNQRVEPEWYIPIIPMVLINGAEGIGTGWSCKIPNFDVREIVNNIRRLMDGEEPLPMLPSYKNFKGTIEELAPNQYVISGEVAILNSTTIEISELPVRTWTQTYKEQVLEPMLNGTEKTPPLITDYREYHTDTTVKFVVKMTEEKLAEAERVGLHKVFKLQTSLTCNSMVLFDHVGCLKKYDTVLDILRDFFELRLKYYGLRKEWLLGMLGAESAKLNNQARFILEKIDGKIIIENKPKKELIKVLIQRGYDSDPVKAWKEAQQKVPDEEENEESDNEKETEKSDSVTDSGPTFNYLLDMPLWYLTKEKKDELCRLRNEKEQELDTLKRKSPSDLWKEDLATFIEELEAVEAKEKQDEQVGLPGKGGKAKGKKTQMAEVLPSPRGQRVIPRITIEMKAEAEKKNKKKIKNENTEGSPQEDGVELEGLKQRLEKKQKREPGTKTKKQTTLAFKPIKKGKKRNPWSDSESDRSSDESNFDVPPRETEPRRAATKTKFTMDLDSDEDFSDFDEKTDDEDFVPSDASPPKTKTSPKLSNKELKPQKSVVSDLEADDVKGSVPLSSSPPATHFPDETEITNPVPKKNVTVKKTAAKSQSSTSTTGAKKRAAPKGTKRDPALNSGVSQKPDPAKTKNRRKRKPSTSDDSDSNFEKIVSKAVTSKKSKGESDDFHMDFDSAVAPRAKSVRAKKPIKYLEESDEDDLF
Sequence of VEGFR2 (KDR) (P35968 20-1356): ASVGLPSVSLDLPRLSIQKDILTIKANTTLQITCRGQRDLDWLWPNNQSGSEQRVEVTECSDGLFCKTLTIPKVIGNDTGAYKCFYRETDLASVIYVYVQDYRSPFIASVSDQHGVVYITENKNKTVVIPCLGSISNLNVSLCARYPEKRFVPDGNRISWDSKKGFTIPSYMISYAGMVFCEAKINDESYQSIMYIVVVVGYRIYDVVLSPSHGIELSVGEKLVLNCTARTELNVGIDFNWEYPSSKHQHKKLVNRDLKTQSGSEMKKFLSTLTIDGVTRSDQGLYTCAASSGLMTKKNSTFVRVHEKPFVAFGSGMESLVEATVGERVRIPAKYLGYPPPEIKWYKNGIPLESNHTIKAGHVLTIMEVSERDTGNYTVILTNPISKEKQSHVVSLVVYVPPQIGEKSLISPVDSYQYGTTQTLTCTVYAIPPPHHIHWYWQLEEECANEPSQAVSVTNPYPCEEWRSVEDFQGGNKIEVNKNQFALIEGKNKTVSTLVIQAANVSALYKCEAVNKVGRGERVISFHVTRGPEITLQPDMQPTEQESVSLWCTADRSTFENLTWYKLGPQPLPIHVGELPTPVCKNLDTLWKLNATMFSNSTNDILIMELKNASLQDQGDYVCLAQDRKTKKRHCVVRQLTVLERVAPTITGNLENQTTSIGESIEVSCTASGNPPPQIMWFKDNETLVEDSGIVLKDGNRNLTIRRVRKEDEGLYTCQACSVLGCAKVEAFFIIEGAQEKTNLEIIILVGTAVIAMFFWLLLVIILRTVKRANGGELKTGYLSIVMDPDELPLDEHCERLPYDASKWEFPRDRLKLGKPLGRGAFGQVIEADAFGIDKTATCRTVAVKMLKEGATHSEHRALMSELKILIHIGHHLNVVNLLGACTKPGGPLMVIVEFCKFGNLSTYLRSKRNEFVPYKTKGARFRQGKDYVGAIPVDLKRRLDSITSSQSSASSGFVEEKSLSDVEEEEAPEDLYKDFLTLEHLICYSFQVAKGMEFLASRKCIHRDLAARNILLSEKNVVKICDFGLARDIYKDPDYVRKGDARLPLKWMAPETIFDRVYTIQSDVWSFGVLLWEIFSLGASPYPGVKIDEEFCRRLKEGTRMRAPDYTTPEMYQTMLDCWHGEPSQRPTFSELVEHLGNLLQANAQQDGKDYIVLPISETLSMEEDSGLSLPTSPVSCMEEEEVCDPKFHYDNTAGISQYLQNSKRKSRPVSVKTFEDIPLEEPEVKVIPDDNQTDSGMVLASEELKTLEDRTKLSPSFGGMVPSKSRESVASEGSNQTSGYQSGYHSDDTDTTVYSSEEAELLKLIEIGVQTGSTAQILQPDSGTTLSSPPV

SMILES | melting point [°C] | also measured
COC(=O)CNC(=O)c1cc2ccccc2oc1=O (as salt: hydrochloride) [4a, Methyl [(2-oxo-2H-chromene-3-carbonyl)-amino] ethanoate] | 173 to 175 | –
COC(=O)C[C@H](NC(=O)c1cc2ccccc2oc1=O)C(=O)OC (as salt: succinate) [4g, Dimethyl 2-[(2-oxo-2H-chromene-3-carbonyl)-amino] succinate] | 69 to 71 | –
COC(=O)[C@H](C)NC(=O)c1cc2ccccc2oc1=O [4b, Methyl 2-[(2-oxo-2H-chromene-3-carbonyl)-amino] propanoate] | 104 to 106 | –
COC(=O)CCNC(=O)c1cc2ccccc2oc1=O [4c, Methyl 3-[(2-oxo-2H-chromene-3-carbonyl)-amino] propanoate] | 135 to 137 | –
COC(=O)C(CO)NC(=O)c1cc2ccccc2oc1=O (stereo not shown) [4d, Methyl 3-hydroxy-2-[(2-oxo-2H-chromene-3-carbonyl)-amino]-propanoate] | 177 to 179 | –
COC(=O)C(NC(=O)c1cc2ccccc2oc1=O)C(C)C (stereo not shown) [4e, Methyl 3-methyl-2-[(2-oxo-2H-chromene-3-carbonyl)-amino] butanoate] | 75 to 77 | –
COC(=O)[C@H](CC(C)C)NC(=O)c1cc2ccccc2oc1=O [4f, Methyl 4-methyl-2-[(2-oxo-2H-chromene-3-carbonyl)-amino] pentan-oate] | 95 to 97 | –
COC(=O)CC[C@H](NC(=O)c1cc2ccccc2oc1=O)C(=O)OC [4h, Dimethyl 2-[(2-oxo-2H-chromene-3-carbonyl)-amino] pentanedioate] | 64 to 66 | –
COC(=O)[C@H](CCSC)NC(=O)c1cc2ccccc2oc1=O [4i, Methyl 4-methylsulfanyl-2-[(2-oxo-2H-chromene-3-carbonyl)-amino] butanoate] | 81 to 83 | –
COC(=O)C(NC(=O)c1cc2ccccc2oc1=O)c1ccccc1 (stereo not shown) [4j, Methyl [(2-oxo-2H-chromene-3-carbonyl)-amino]-phenylacetate] | 189 to 192 | –
COC(=O)C(Cc1ccc(O)cc1)NC(=O)c1cc2ccccc2oc1=O (stereo not shown) [4k, Methyl 3-(4-hydroxyphenyl)-2-[(2-oxo-2H-chromene-3-carbonyl)-amino]-propanoate] | – | IC50 [1]: 23.6 ± 1.19 µM; IC50 [2]: 4.1 ± 0.64 µM; IC50 ([3]; 48 h): 9.44 µM; IC50 ([3]; Homo sapiens, HepG2, 48 h): 9.4 µM; IC50 [4]: 4.98 µM; cell death [4]: 97.82%
COC(=O)C(Cc1c[nH]c2ccccc12)NC(=O)c1cc2ccccc2oc1=O (stereo not shown) [4l, Methyl 3-(1H-Indol-3-yl)-2-[(2-oxo-2H-chromene-3-carbonyl)-amino]-propanoate] | 138 to 139 | –
COC(=O)C(CCSC)NC(=O)CCNC(=O)c1cc2ccccc2oc1=O (stereo not shown) [6c, Methyl 4-methylsulfanyl-2-{3-[(2-oxo-2H-chromene-3-carbonyl)-amino]-propionylamino}-butanoate] | – | IC50 [1]: 34.2 ± 1.06 µM; IC50 [2]: 8.6 ± 0.15 µM; IC50 ([3]; 48 h): 33.8 µM; IC50 ([3]; Homo sapiens, HepG2, 48 h): 33.9 µM; IC50 [4]: 5.85 µM; cell death [4]: 97.35%

Continued, in another order:

melting point [°C] | SMILES | also measured
195 to 197 | O=C(O)CCNC(=O)c1cc2ccccc2oc1=O [5c, 3-[(2-Oxo-2H-chromene-3-carbonyl)-amino]-propanoic acid] | –
210 to 212 | CC(C)C(NC(=O)c1cc2ccccc2oc1=O)C(=O)O (stereo not shown) [5e, 3-Methyl-2-[(2-oxo-2H-chromene-3-carbonyl)-amino] butanoic acid] | –
108 to 109 | CSCCC(NC(=O)c1cc2ccccc2oc1=O)C(=O)O (stereo not shown) [5i, 4-Methylsulfanyl-2-[(2-oxo-2H-chromene-3-carbonyl)-amino]-butanoic acid] | –
127 to 128 | COC(=O)CCNC(=O)CCNC(=O)c1cc2ccccc2oc1=O [6a, Methyl 3-{3-[(2-oxo-2H-chromene-3-carbonyl)-amino]-propionylamino} propanoate] | –
101 to 103 | COC(=O)C(NC(=O)CCNC(=O)c1cc2ccccc2oc1=O)C(C)C (stereo not shown) [6b, Methyl 3-Methyl-2-{3-[(2-oxo-2H-chromene-3-carbonyl)-amino]-propionyl-amino}-butanoate] | –
149 to 151 | COC(=O)CCNC(=O)C(NC(=O)c1cc2ccccc2oc1=O)C(C)C (stereo not shown) [7a, Methyl 3-{3-methyl-2-[(2-oxo-2H-chromene-3-carbonyl)-amino]-butyryl-amino}-propanoate] | –
97 to 99 | COC(=O)C(NC(=O)C(NC(=O)c1cc2ccccc2oc1=O)C(C)C)C(C)C (stereo not shown) [7b, Methyl 3-Methyl-2-{3-methyl-2-[(2-oxo-2H-chromene-3-carbonyl)-amino]-butyrylamino}-butanoate] | –
100 to 101 | COC(=O)[C@H](CCSC)NC(=O)[C@@H](NC(=O)c1cc2ccccc2oc1=O)C(C)C [7c, Methyl 2-{3-methyl-2-[(2-oxo-2H-chromene-3-carbonyl)-amino]-butyrylamino} -4-methylsulfanyl butanoate] | –
104 to 105 | COC(=O)CCNC(=O)C(CCSC)NC(=O)c1cc2ccccc2oc1=O (stereo not shown) [8a, Methyl 3-{4-methylsulfanyl-2-[(2-oxo-2H-chromene-3-carbonyl)-amino]-butyrylamino}-propanoate] | –
98 to 99 | COC(=O)C(NC(=O)C(CCSC)NC(=O)c1cc2ccccc2oc1=O)C(C)C (stereo not shown) [8b, Methyl 3-methyl-2-{4-methylsulfanyl-2-[(2-oxo-2H-chromene-3-carbonyl)-amino]-butyrylamino}-butanoate] | –
109 to 111 | COC(=O)C(CCSC)NC(=O)C(CCSC)NC(=O)c1cc2ccccc2oc1=O (stereo not shown) [8c, Methyl 4-methylsulfanyl-2-{4-methylsulfanyl-2-[(2-oxo-2H-chromene-3-carbonyl)-amino]-butyrylamino}-butanoate] | –

From publication PMC9737644, “Facile Synthesis of Some Coumarin Derivatives and Their Cytotoxicity through VEGFR2 and Topoisomerase II Inhibition” (Molecules, 2022)
